Results: ChEMBL document CHEMBL1201862, “PubChem BioAssay data set” (2004)
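A five-concentration, 48-hour dose response in 96-well plates underlies each endpoint, interpolated linearly between surrounding concentrations. Abbreviation: GI50, concentration required for 50% inhibition of growth.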 Activity calls are given as the source filed them. Rule as the data show it: active = GI50 up to about 1.1 µM and inactive = higher.

How the values were obtained:
Experiment in all cases: inhibition of tumour cell growth, NCI panel, 48 h
M14 = system: M14
NCI-H522 = system: NCI-H522
UACC-257 = system: UACC-257
LOX IMVI = system: LOX IMVI
SF-539 = system: SF-539
HT-29 = system: HT-29
SF-295 = system: SF-295
OVCAR-4 = system: OVCAR-4
NCI-H460 = system: NCI-H460
SW-620 = system: SW-620
SNB-75 = system: SNB-75
A498 = system: A498
COLO 205 = system: COLO 205
U-251 = system: U-251
HOP-62 = system: HOP-62
EKVX = system: EKVX
Malme-3M = system: Malme-3M
DU-145 = system: DU-145
NCI/ADR-RES = system: NCI/ADR-RES
MDA-MB-231 = system: MDA-MB-231

Row | Structure (SMILES) | GI50 (M14) | GI50 (NCI-H522) | GI50 (UACC-257) | GI50 (LOX IMVI) | GI50 (SF-539) | GI50 (HT-29) | GI50 (SF-295) | GI50 (OVCAR-4) | GI50 (NCI-H460) | GI50 (SW-620) | GI50 (SNB-75) | GI50 (A498) | GI50 (COLO 205) | GI50 (U-251) | GI50 (HOP-62) | GI50 (EKVX) | GI50 (Malme-3M) | GI50 (DU-145) | GI50 (NCI/ADR-RES) | GI50 (MDA-MB-231)
1 | COC(=O)CC1CC2(C(=O)OC)c3[nH]c4ccccc4c3CCN2C1=O (stereo not drawn) | > 100 µM (inactive) | > 100 µM (inactive) | > 100 µM (inactive) | > 100 µM (inactive) | > 100 µM (inactive) | > 100 µM (inactive) | > 100 µM (inactive) | > 100 µM (inactive) | > 100 µM (inactive) | > 100 µM (inactive) | > 100 µM (inactive) | > 100 µM (inactive) | > 100 µM (inactive) | > 100 µM (inactive) | > 100 µM (inactive) | > 100 µM (inactive) | > 100 µM (inactive) | – | – | –
2 | C#CCN(N=O)C(=O)NCCCCC(NC(C)=O)C(=O)NCc1ccccc1 (stereo not drawn) | > 100 µM (inactive) | 25.5 µM (inactive) | > 100 µM (inactive) | > 100 µM (inactive) | > 100 µM (inactive) | > 100 µM (inactive) | > 100 µM (inactive) | > 100 µM (inactive) | > 100 µM (inactive) | > 100 µM (inactive) | > 100 µM (inactive) | > 100 µM (inactive) | > 100 µM (inactive) | > 100 µM (inactive) | > 100 µM (inactive) | > 100 µM (inactive) | > 100 µM (inactive) | – | – | –
3 | COc1ccc(N2C(=O)C3c4[nH]c5ccc(C)cc5c4C4CCC(C(C)(C)C)CC4C3C2=O)cc1 (stereo not drawn) | 10.7 µM (inactive) | 25.6 µM (inactive) | 23.8 µM (inactive) | – | 15.6 µM (inactive) | 12.7 µM (inactive) | 5.48 µM (inactive) | 3.35 µM (inactive) | 6.22 µM (inactive) | 5.58 µM (inactive) | 2.96 µM (inactive) | – | 18.4 µM (inactive) | 3.85 µM (inactive) | 13.6 µM (inactive) | 31 µM (inactive) | – | > 100 µM (inactive) | 13.3 µM (inactive) | 35.9 µM (inactive)
4 | NC(=S)N/N=C(\Cc1nc2ccc(Cl)cc2nc1O)C(=O)Nc1ccc(Cl)cc1 | > 100 µM (inactive) | > 100 µM (inactive) | > 100 µM (inactive) | > 100 µM (inactive) | > 100 µM (inactive) | > 100 µM (inactive) | > 100 µM (inactive) | > 100 µM (inactive) | > 100 µM (inactive) | > 100 µM (inactive) | > 100 µM (inactive) | – | > 100 µM (inactive) | > 100 µM (inactive) | > 100 µM (inactive) | 76 µM (inactive) | – | > 100 µM (inactive) | > 100 µM (inactive) | > 100 µM (inactive)
5 | Cc1ccc(/N=N/N(C)C(C)C(O)Cc2ccccc2)cc1 (stereo not drawn) | 95.7 µM (inactive) | – | 84.9 µM (inactive) | – | – | 80.4 µM (inactive) | 38.3 µM (inactive) | > 100 µM (inactive) | 36.5 µM (inactive) | 64.9 µM (inactive) | 43.9 µM (inactive) | – | 40.9 µM (inactive) | 88.5 µM (inactive) | > 100 µM (inactive) | 62.2 µM (inactive) | > 100 µM (inactive) | 52.1 µM (inactive) | 40.4 µM (inactive) | 52.7 µM (inactive)
6 | Cc1cc2[nH]c3c(C#N)c(-c4ccccc4)c(/N=N/c4cccc(C(F)(F)F)c4)c(=O)n3c2cc1C | 34.4 µM (inactive) | 16 µM (inactive) | 26.8 µM (inactive) | 49.1 µM (inactive) | 97.5 µM (inactive) | – | 42.6 µM (inactive) | 39.5 µM (inactive) | 21.4 µM (inactive) | 35.8 µM (inactive) | > 100 µM (inactive) | 88.5 µM (inactive) | 42.2 µM (inactive) | 39.3 µM (inactive) | > 100 µM (inactive) | 23.4 µM (inactive) | 42.9 µM (inactive) | – | 34.3 µM (inactive) | 85.5 µM (inactive)
7 | Cc1cccc(NC(=O)C(=O)C(C2OC(=O)c3ccccc32)[N+](=O)[O-])c1C (stereo not drawn) | 13.8 µM (inactive) | 2 µM (inactive) | 5.61 µM (inactive) | 2.4 µM (inactive) | 18.9 µM (inactive) | 16.7 µM (inactive) | 14.9 µM (inactive) | 8.11 µM (inactive) | 6 µM (inactive) | 5.57 µM (inactive) | 5.51 µM (inactive) | 15.7 µM (inactive) | 15.4 µM (inactive) | 3.64 µM (inactive) | 17.2 µM (inactive) | 17.6 µM (inactive) | 3.79 µM (inactive) | – | – | –
8 | CCc1cccc(C)c1NC(=S)NC(=O)c1ccccc1C(=O)NC(=S)Nc1c(C)cccc1CC | > 100 µM (inactive) | 18.2 µM (inactive) | > 100 µM (inactive) | > 100 µM (inactive) | > 100 µM (inactive) | 43 µM (inactive) | 57.7 µM (inactive) | 69.3 µM (inactive) | 67.8 µM (inactive) | 75.3 µM (inactive) | > 100 µM (inactive) | > 100 µM (inactive) | 61.1 µM (inactive) | 67.6 µM (inactive) | > 100 µM (inactive) | 59.6 µM (inactive) | > 100 µM (inactive) | – | – | –
9 | Cc1cccc(C(C)(C)C)c1NC(=O)CCl | > 100 µM (inactive) | > 100 µM (inactive) | > 100 µM (inactive) | > 100 µM (inactive) | > 100 µM (inactive) | > 100 µM (inactive) | > 100 µM (inactive) | > 100 µM (inactive) | > 100 µM (inactive) | > 100 µM (inactive) | > 100 µM (inactive) | > 100 µM (inactive) | > 100 µM (inactive) | > 100 µM (inactive) | > 100 µM (inactive) | > 100 µM (inactive) | > 100 µM (inactive) | – | – | –
10 | C/C(=N\NC(=S)N1CCC(C2CCN(C(=S)N/N=C(\C)c3ccccn3)CC2)CC1)c1ccccn1 | > 100 µM (inactive) | 63.5 µM (inactive) | > 100 µM (inactive) | 68.9 µM (inactive) | 51.3 µM (inactive) | > 100 µM (inactive) | 71.3 µM (inactive) | > 100 µM (inactive) | > 100 µM (inactive) | > 100 µM (inactive) | 28.2 µM (inactive) | > 100 µM (inactive) | > 100 µM (inactive) | 34.1 µM (inactive) | > 100 µM (inactive) | > 100 µM (inactive) | > 100 µM (inactive) | – | – | –
11 | CSc1cc(C(C)(C)C)ccc1C(O)c1ccc(C(C)(C)C)cc1SC | 12.2 µM (inactive) | 10.2 µM (inactive) | 10.4 µM (inactive) | 12 µM (inactive) | 16 µM (inactive) | 5.79 µM (inactive) | 10.5 µM (inactive) | 10.9 µM (inactive) | 8.2 µM (inactive) | 11.3 µM (inactive) | 12.8 µM (inactive) | 13.2 µM (inactive) | 11 µM (inactive) | 14.1 µM (inactive) | 13.5 µM (inactive) | 6.81 µM (inactive) | 14 µM (inactive) | – | – | –
12 | CC(C)CCCC(C)[C@H]1CCC2[C@H]3C(CC[C@@]21C)[C@@]1(C)CCC=C[C@]12C[C@@H]2[C@@H]3O (stereo partly drawn) | > 100 µM (inactive) | > 100 µM (inactive) | > 100 µM (inactive) | > 100 µM (inactive) | > 100 µM (inactive) | > 100 µM (inactive) | > 100 µM (inactive) | > 100 µM (inactive) | > 100 µM (inactive) | > 100 µM (inactive) | > 100 µM (inactive) | > 100 µM (inactive) | > 100 µM (inactive) | > 100 µM (inactive) | > 100 µM (inactive) | > 100 µM (inactive) | > 100 µM (inactive) | – | – | –
13 | Cc1ccc(S(=O)(=O)N/N=C2/CCC3(O)CC2(C)CCC2[C@H]3CC2(C)C)cc1 (stereo partly drawn) | 43.4 µM (inactive) | 26.2 µM (inactive) | 37.8 µM (inactive) | 11.2 µM (inactive) | – | 33.6 µM (inactive) | 25.1 µM (inactive) | 35.9 µM (inactive) | 22.8 µM (inactive) | 27.9 µM (inactive) | 21.4 µM (inactive) | – | 16.3 µM (inactive) | 17.5 µM (inactive) | 43 µM (inactive) | 31.7 µM (inactive) | 35.3 µM (inactive) | 36.6 µM (inactive) | 28.2 µM (inactive) | –
14 | CC(C)[Si](OCC1CC(C#N)OC(C)(C)O1)(C(C)C)C(C)C (stereo not drawn) | 20 µM (inactive) | 18.2 µM (inactive) | 17.3 µM (inactive) | 19.3 µM (inactive) | 27.1 µM (inactive) | 14.6 µM (inactive) | 14.9 µM (inactive) | 30.3 µM (inactive) | 16.5 µM (inactive) | 18.9 µM (inactive) | 31.9 µM (inactive) | 6.3 µM (inactive) | 17.3 µM (inactive) | 15.8 µM (inactive) | 23.7 µM (inactive) | 30.3 µM (inactive) | 22.9 µM (inactive) | – | – | –
15 | Cc1cccc2cc3cccc(C(=O)NCCN(C)C)c3nc12 | 0.433 µM (active) | 0.151 µM (active) | 0.245 µM (active) | 0.083 µM (active) | 0.129 µM (active) | 0.131 µM (active) | 0.131 µM (active) | 0.27 µM (active) | < 0.01 µM (active) | 0.0394 µM (active) | 0.235 µM (active) | 0.045 µM (active) | 0.0798 µM (active) | 0.0689 µM (active) | 0.0745 µM (active) | 0.362 µM (active) | 0.139 µM (active) | – | – | –
16 | COc1ccc(NCc2cc(OC)cc(OC)c2)cc1 | 22.2 µM (inactive) | 7.62 µM (inactive) | 40.6 µM (inactive) | 25.2 µM (inactive) | 16.3 µM (inactive) | 6.7 µM (inactive) | 20.8 µM (inactive) | 18.5 µM (inactive) | 20.1 µM (inactive) | 8.32 µM (inactive) | 23.4 µM (inactive) | 27.5 µM (inactive) | 9.33 µM (inactive) | 24.4 µM (inactive) | 8.53 µM (inactive) | 78.5 µM (inactive) | 40.4 µM (inactive) | – | – | –
